# Experimental data: patent US10654837B2, “Sulphamoylaryl derivatives and use thereof as medicaments for the treatment of liver fibrosis” (Janssen Pharmaceutica NV, priority 2017, dated 2020)
# Target: T1, 5HTR2B (Homo sapiens, UniProt P41595)
# T1 construct: host or cells: human Maverick/293 cells
# Assay: 5HTR2B antagonist activity, calcium mobilization assay in human Maverick/293 cells (serotonin as agonist)
# Format: cell-based
# Conditions: intracellular calcium, emission 525 nm, read-out: Ca assay IC50
# Outline: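 Calcium mobilization read over 80 s at ex 485/em 525 nm after serotonin addition. Before that, 2 h serum-free starvation, 50 min dye loading at 37 °C, and 15-30 min antagonist exposure. IC50 from sigmoidal fit of peak % inhibition.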
# T1 sequence (P41595 whole entry): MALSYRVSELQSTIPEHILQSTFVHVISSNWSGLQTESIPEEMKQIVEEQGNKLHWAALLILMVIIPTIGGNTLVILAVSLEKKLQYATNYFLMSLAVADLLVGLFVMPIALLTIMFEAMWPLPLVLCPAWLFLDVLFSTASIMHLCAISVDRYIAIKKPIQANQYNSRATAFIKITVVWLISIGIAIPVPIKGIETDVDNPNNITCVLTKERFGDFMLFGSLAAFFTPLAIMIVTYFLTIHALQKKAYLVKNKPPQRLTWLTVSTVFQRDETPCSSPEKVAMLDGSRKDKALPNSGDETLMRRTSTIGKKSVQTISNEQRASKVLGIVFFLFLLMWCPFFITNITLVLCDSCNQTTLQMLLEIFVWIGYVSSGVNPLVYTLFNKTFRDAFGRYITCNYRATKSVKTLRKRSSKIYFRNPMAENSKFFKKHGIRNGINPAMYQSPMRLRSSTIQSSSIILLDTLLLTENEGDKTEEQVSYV
row,SMILES,IC50 [nM]
1,"COc1ccc(S(=O)(=O)N[C@H]2CCOC2)cc1C(=O)Nc1ncc(Cl)cc1F [Compound 120, (S)—N-(5-Chloro-3-fluoropyridin-2-yl)-2-methoxy-5-(N-(tetrahydrofuran-3-yl)sulfamoyl)benzamide]",50
2,"COc1ccc(S(=O)(=O)NC2CC2)cc1C(=O)Nc1ccc(F)cc1 [Compound 48, 5-(N-Cyclopropylsulfamoyl)-N-(4-fluorophenyl)-2-methoxybenzamide]",2.7
3,"COc1ccc(S(=O)(=O)N[C@H]2CCOC2)cc1C(=O)Nc1cc(Cl)c(F)cc1F [Compound 75, (S)—N-(5-Chloro-2,4-difluorophenyl)-2-methoxy-5-(N-(tetrahydrofuran-3-yl)sulfamoyl)benzamide]",9.1
4,"COc1ccc(S(=O)(=O)N[C@H]2CCOC2)cc1C(=O)Nc1cccc(Cl)c1 [Compound 126, (S)—N-(3-Chlorophenyl)-2-methoxy-5-(N-(tetrahydrofuran-3-yl)sulfamoyl) benzamide]",12
5,COc1ccc(S(=O)(=O)N[C@@H]2CCNC2)cc1C(=O)Nc1ccc(F)c(C(F)F)c1 [Compound 181],4.5
6,"COc1ccc(S(=O)(=O)N[C@H]2CCOC2)cc1C(=O)Nc1ccc(Cl)cc1F [Compound 114, (S)—N-(4-Chloro-2-fluorophenyl)-2-methoxy-5-(N-(tetrahydrofuran-3-yl)sulfamoyl)benzamide]",0.4
7,"COc1ccc(S(=O)(=O)N[C@H]2CC[C@@H](O)CC2)cc1C(=O)Nc1ccc(F)cc1 [Compound 53, N-(4-Fluorophenyl)-5-(N-((cis)-4-hydroxycyclohexyl)sulfamoyl)-2-methoxybenzamide]",0.3
8,"[2H]C([2H])([2H])Oc1ccc(S(=O)(=O)N[C@H]2CCOC2)cc1C(=O)Nc1ccc(F)c(C)c1 [Compound 191, (S)—N-(4-fluoro-3-methylphenyl)-2-(methoxy-d3)-5-(N-(tetrahydrofuran-3-yl)sulfamoyl)benzamide]",1.1
9,"COc1ccc(S(=O)(=O)N[C@H]2CCNC2)cc1C(=O)Nc1ccc(F)c(C(F)F)c1 [Compound 183, (S)—N-(3-(difluoromethyl)-4-fluorophenyl)-2-methoxy-5-(N-(pyrrolidin-3-yl)sulfamoyl)benzamide]",0.5
10,"COc1ccc(S(=O)(=O)NC2CN(C)C2)cc1C(=O)Nc1ccc(F)c(C)n1 [Compound 170, N-(5-Fluoro-6-methylpyridin-2-yl)-2-methoxy-5-(N-(1-methylazetidin-3-yl)sulfamoyl)benzamide]",58
11,"COc1ccc(S(=O)(=O)NC(C)C)cc1C(=O)Nc1ccc(F)c(C)c1 [Compound 8, N-(4-Fluoro-3-methylphenyl)-5-(N-isopropylsulfamoyl)-2-methoxybenzamide]",2.5
12,"COc1ccc(S(=O)(=O)N[C@H]2CCOC2)cc1C(=O)Nc1ccc(F)cc1C [Compound 131, (S)—N-(4-Fluoro-2-methylphenyl)-2-methoxy-5-(N-(tetrahydrofuran-3-yl)sulfamoyl)benzamide]",1.3
13,"COc1ccc(S(=O)(=O)N[C@H]2CCOC2)cc1C(=O)Nc1cccc(C#N)c1F [Compound 92, (S)—N-(3-Cyano-2-fluorophenyl)-2-methoxy-5-(N-(tetrahydrofuran-3-yl)sulfamoyl)benzamide]",136
14,"COc1ccc(S(=O)(=O)N[C@H]2CCOC2)cc1C(=O)Nc1ccccc1C(F)(F)F [Compound 149, (S)-2-Methoxy-5-(N-(tetrahydrofuran-3-yl)sulfamoyl)-N-(2-(trifluoromethyl)phenyl)benzamide]",8.4
15,"COc1ccc(S(=O)(=O)N[C@H]2CCOC2)cc1C(=O)Nc1c(F)ccc(Cl)c1F [Compound 93, (S)—N-(3-Chloro-2,6-difluorophenyl)-2-methoxy-5-(N-(tetrahydrofuran-3-yl)sulfamoyl)benzamide]",1060
16,"COc1ccc(S(=O)(=O)N[C@H]2C[C@@](C)(O)C2)cc1C(=O)Nc1ccc(F)c(C)n1 [Compound 31, N-(5-fluoro-6-methylpyridin-2-yl)-5-(N-((cis)-3-hydroxy-3-methylcyclobutyl)sulfamoyl)-2-methoxybenzamide]",55
17,"COc1ccc(S(=O)(=O)N[C@H]2CCOC2)cc1C(=O)Nc1c(F)cccc1F [Compound 105, (S)—N-(2,6-Difluorophenyl)-2-methoxy-5-(N-(tetrahydrofuran-3-yl)sulfamoyl) benzamide]",12
18,"COc1ccc(S(=O)(=O)N[C@H]2CCOC2)cc1C(=O)Nc1ccc(Cl)c(Cl)c1 [Compound 72, (S)—N-(3,4-Dichlorophenyl)-2-methoxy-5-(N-(tetrahydrofuran-3-yl)sulfamoyl) benzamide]",5.1
19,"COc1ccc(S(=O)(=O)NC2COC2)cc1C(=O)Nc1ccc(F)c(C(F)F)c1 [Compound 39, N-(3-(Difluoromethyl)-4-fluorophenyl)-2-methoxy-5-(N-(oxetan-3-yl)sulfamoyl)benzamide]",3.6
20,"Cc1nc(NC(=O)c2cc(S(=O)(=O)N[C@H]3CCOC3)ccc2OC(C)C)ccc1F [Compound 197, (S)—N-(5-fluoro-6-methylpyridin-2-yl)-2-isopropoxy-5-(N-(tetrahydrofuran-3-yl)sulfamoyl)benzamide]",5.3
21,COc1ccc(S(N)(=O)=O)cc1C(=O)Nc1ccc(F)c(C)n1 [Compound 22],610
22,"COc1ccc(S(=O)(=O)N[C@H]2CC[C@@H](O)CC2)cc1C(=O)Nc1ccc(F)c(C)n1 [Compound 27, N-(5-Fluoro-6-methylpyridin-2-yl)-5-(N-((cis)-4-hydroxycyclohexyl)sulfamoyl)-2-methoxybenzamide]",1.1
23,"COc1ccc(S(=O)(=O)N[C@H]2CCOC2)cc1C(=O)Nc1ccc(F)c(C2CC2)n1 [Compound 162, (S)—N-(6-Cyclopropyl-5-fluoropyridin-2-yl)-2-methoxy-5-(N-(tetrahydrofuran-3-yl)sulfamoyl)benzamide]",0.5
24,COc1ccc(S(=O)(=O)N[C@H]2C[C@@H](O)C2)cc1C(=O)Nc1ccc(F)c(C)n1 [Compound 141],2.8
25,"COc1ccc(S(=O)(=O)N[C@@H]2CCNC2)cc1C(=O)Nc1ccc(F)c(C)n1 [Compound 177, (R)—N-(5-Fluoro-6-methylpyridin-2-yl)-2-methoxy-5-(N-(pyrrolidin-3-yl)sulfamoyl)benzamide]",4.2

# Results, then the compound that gave them:
row,IC50 [nM],SMILES
1,8.5,"COCC(C)NS(=O)(=O)c1ccc(OC)c(C(=O)Nc2ccc(F)c(C(F)F)c2)c1 (single isomer, unassigned) [Compound 32b, (S*)—N-(3-(Difluoromethyl)-4-fluorophenyl)-2-methoxy-5-(N-(1-methoxypropan-2-yl)sulfamoyl)benzamide]"
2,4.3,"COc1ccc(S(=O)(=O)N[C@H](C)CO)cc1C(=O)Nc1ccc(F)c(C(F)F)c1 [Compound 35b, (R)—N-(3-(Difluoromethyl)-4-fluorophenyl)-5-(N-(1-hydroxypropan-2-yl)sulfamoyl)-2-methoxybenzamide]"
3,1.8,"COCC(C)NS(=O)(=O)c1ccc(OC)c(C(=O)Nc2ccc(F)c(C(F)F)c2)c1 (single isomer, unassigned) [Compound 32a, (R*)—N-(3-(Difluoromethyl)-4-fluorophenyl)-2-methoxy-5-(N-(1-methoxypropan-2-yl)sulfamoyl)benzamide]"
4,1.4,"COc1ccc(S(=O)(=O)N[C@@H](C)C(N)=O)cc1C(=O)Nc1ccc(F)c(C(F)F)c1 [Compound 34a, (S)-5-(N-(1-Amino-1-oxopropan-2-yl)sulfamoyl)-N-(3-(difluoromethyl)-4-fluorophenyl)-2-methoxybenzamide]"
5,0.3,"COc1ccc(S(=O)(=O)N[C@H]2C[C@@H](O)C2)cc1C(=O)Nc1ccc(F)cc1Cl [Compound 144b, N-(2-chloro-4-fluorophenyl)-5-(N-((cis)-3-hydroxycyclobutyl)sulfamoyl)-2-methoxybenzamide]"
6,5,"COc1ccc(S(=O)(=O)NCC(O)C(F)(F)F)cc1C(=O)Nc1ccc(F)c(C)n1 (single isomer, unassigned) [Compound 23b, (S*)—N-(5-fluoro-6-methylpyridin-2-yl)-2-methoxy-5-(N-(3,3,3-trifluoro-2-hydroxypropyl)sulfamoyl)benzamide]"
7,50,"COc1ccc(N(C)S(=O)(=O)C2CCOC2)cc1C(=O)Nc1ccc(F)c(C)c1 (single isomer, unassigned) [Compound 204a, (R*)—N-(4-Fluoro-3-methylphenyl)-2-methoxy-5-(N-methyltetrahydrofuran-3-sulfonamido)benzamide]"
8,0.9,"COc1ccc(S(=O)(=O)N[C@H]2C[C@@H](O)C2)cc1C(=O)Nc1cccc(C)c1Cl [Compound 140b, N-(2-Chloro-3-methylphenyl)-5-(N-((cis)-3-hydroxycyclobutyl)sulfamoyl)-2-methoxybenzamide]"
9,0.1,"COc1ccc(S(=O)(=O)NC2COC[C@@H]2O)cc1C(=O)Nc1ccccc1Cl (stereo in doubt) [Compound 56a, N-(2-Chlorophenyl)-5-(N-((cis)-4-hydroxytetrahydrofuran-3-yl)sulfamoyl)-2-methoxybenzamide]"
10,1,"COc1ccc(S(=O)(=O)N[C@H]2C[C@@H](O)C2)cc1C(=O)Nc1cc(F)ccc1Cl [Compound 146b, N-(2-chloro-5-fluorophenyl)-5-(N-((cis)-3-hydroxycyclobutyl)sulfamoyl)-2-methoxybenzamide]"
11,0.3,"COc1ccc(S(=O)(=O)N[C@@H](C)CO)cc1C(=O)Nc1ccccc1Cl [Compound 55a, (S)—N-(2-Chlorophenyl)-5-(N-(1-hydroxypropan-2-yl)sulfamoyl)-2-methoxy benzamide]"
12,2.4,"COc1ccc(S(=O)(=O)NCC(O)C(F)(F)F)cc1C(=O)Nc1ccc(F)cc1 (single isomer, unassigned) [Compound 44a, (S*)—N-(4-Fluorophenyl)-2-methoxy-5-(N-(3,3,3-trifluoro-2-hydroxypropyl)sulfamoyl)benzamide]"
13,1.2,"COc1ccc(S(=O)(=O)NC2CCN(C)C2=O)cc1C(=O)Nc1ccccc1Cl (single isomer, unassigned) [Compound 54b, (R*)—N-(2-Chlorophenyl)-2-methoxy-5-(N-(1-methyl-2-oxopyrrolidin-3-yl)sulfamoyl)benzamide]"
